According to PMC5513743 (Journal of medical virology, 2017):
Like-named read-outs stand apart in the source and are kept apart here.

Assays:
[1] = test system: HCV replicon cell line AVA5 (sub-genomic (CON1), genotype 1b); assay: microbe, parasite or virus in culture; conditions: Hepatitis C virus, GETYPE1B, Ava5, read-out: EC50 (μM) (individual agent)
[2] = test system: patient derived HCV; assay: microbe, parasite or virus in culture; type: cell-based, hepatitis C virus; conditions: for IC50: Hepatitis C virus, in Homo sapiens
[3] = test system: HCV; conditions: SAD and MAD seven-day Phase I study, chronic HCV patients; ref Thompson AJ, 2015; cited from earlier work
[4] = test system: fused THP-1/Huh7 derivative cells; conditions: capture fusion assay, data not shown
[5] = test system: HCV replicon H/FL-Neo (genotype 1a (H77), full length construct); conditions: HCV genotype 1A replicon
[6] = in vitro
[7] = test system: replicon cell line AVA5; conditions: Table 2; SB 9200 monotherapy
[8] = test system: HCV replicon cell line AVA5 (sub-genomic (CON1), genotype 1b)
[9] = in vitro; conditions: human

NC(=O)c1ncn([C@@H]2O[C@H](CO)[C@@H](O)[C@H]2O)n1 [Ribavirin]
EC50 [1]: > 30 µM

CO[C@@H]1[C@H](OP(=O)(OC[C@H]2O[C@@H](n3cnc4c(N)ncnc43)C[C@@H]2O)SCOC(=O)OC(C)C)[C@@H](CO)O[C@H]1n1ccc(=O)[nH]c1=O (stereo partly shown) [SB 9200]
inhibition of HCV replication ([2]; Genotypes 1,2,3,4, and 6 patient derived HCV): inhibited replication of all the genotypes tested in a dose-dependent manner | IC50 ([2]; G1 strains, patient derived HCV): 0.22 ± 0.076 µM | IC50 ([2]; G3 isolates, patient derived HCV): 0.035 ± 0.013 µM | difference in activity (IC50) against pre- and post treatment quasi-species ([2]; g3 patient who failed SOF/DAC/RBV, NS5A RAS S62L and Y93H enriched): No significant difference | antiviral activity (fold change in HCV RNA from non-treated controls) ([2]; single dose 0.1μM, G3 SVR and NR samples after DAA treatment): demonstrated antiviral activity | safety and tolerability [3]: safe, well tolerated | Cell viability [4]: not affected | S.I. (CC50/EC50) [5]: > 45 | CC50 [6]: > 100 µM | CC50 [7]: > 100 µM | S.I. (CC50/EC50) ([8]; HCV genotype 1B replicon): >100 | S.I. (CC50/EC50) ([8]; Table 2, SB 9200 monotherapy): >100 | CC50 [9]: > 100 µM

C/C=C/C[C@@H](C)[C@@H](O)[C@H]1C(=O)N[C@@H](CC)C(=O)N(C)[C@H](C)C(=O)N(CC)[C@@H](C(C)C)C(=O)N[C@@H](C(C)C)C(=O)N(C)[C@@H](CC(C)C)C(=O)N[C@@H](C)C(=O)N[C@H](C)C(=O)N(C)[C@@H](CC(C)C)C(=O)N(C)[C@@H](CC(C)C)C(=O)N(C)[C@@H](C(C)C)C(=O)N1C [alisporivir, reference compound]
IC50 ([2]; G1 patient derived samples): 0.099 µM | IC50 ([2]; G3 patient derived samples): 0.036 µM
